# Tested on: NAS1605 primary nasopharyngeal tumor sample
# Assay: On chip drug screening of primary tumor dissociated cells
# Type: cell-based, human
# Settings: NAS1605, 16-24 h, normalized to mock treatment
# Experimental: All human studies were conducted with the approval of the Panel on Research Ethics of University of Macau and the Research Ethics Committee of Kiang Wu Hospital, according to the Materials Transfer Agreement between University of Macau and Kiang Wu Hospital. Informed consent for sampling and publication without identifiable information was obtained from all participating patients. All patient sample names were double encoded by the university and the hospital, respectively, to remove any trace of patient identity during sample collection, transfer, processing and analysis. Primary tumors were obtained from surgery conducted at Kiang Wu Hospital immediately after tumor resection. Tumor tissue was dissociated as previously described. Briefly, tumor tissue was first cut into small pieces by a scalpel, then transferred to a 50 mL conical tube containing 5 mL Digestion Buffer I (DMEM/F12 medium containing 5% FBS, 5 μg/mL insulin, 500 ng/mL hydrocortisone, 10 ng/mL epidermal growth factor (EGF), 20 ng/mL cholera toxin, 300 U/mL collagenase III and 100 U/mL hyaluronidase), and digested for no more than 12 h with shaking at 100 rpm in humidified incubator at 37° C. supplemented with 5% CO2. After spinning down at 400 g at ambient temperature for 2 min, the cells were resuspended with 2 mL Digestion Buffer II (DMEM/F12 medium containing 5 mg/mL dispase II and 0.1 mg/mL deoxyribonuclease I), followed by digestion at ambient temperature for 5 min. The cells were then washed with 10 mL HBSS (Life Technologies, USA). […]
# Briefly, cells at final concentrations of 1-2×10^6 cells per mL were aliquoted in 0.2 mL PCR tubes, then mixed with corresponding drugs and 2 μM ethidium homodimer 1 (Life Technologies, USA) by manual pipetting. […] Brightfield and red fluorescence images (Ex. 531/40 nm, Em. 593/40 nm) were taken under 10× magnification (Life Technologies EVOS FL Imaging System, USA).
# For on chip assays, the number of cells was counted in brightfield and red fluorescence images from each well respectively. Cell viability was calculated as follows: […]
compound,measurement,value
CC(C)C[C@H](NC(=O)[C@H](Cc1ccccc1)NC(=O)c1cnccn1)B(O)O [bortezomib],dose dependence of normalized cell viability,dose-dependent reduction of cell viability

# Reference: patent US20190291112A1, “DROPLET MICROFLUIDICS FOR DRUG SCREENING” (University of Macau, priority 2018, published 2019)
